Data on one compound can be found in patent publication US11439609B2, “Nitric oxide releasing PLGA microspheres for biomedical applications” (THE REGENTS OF THE UNIVERSITY OF MICHIGAN, priority 2015, dated 2022).

A short description of the data set: Morphology and size distribution by SEM. The data set is classed as physicochemical. The settings on record: cryomilled at −196° C. On the procedure:
For morphology and size distribution analysis, microspheres were coated with 40 nm of gold using a sputter coater (Desk II, Denton Vacuum Inc., Hill, N.J., USA) for 120 seconds. Secondary electron micrographs were taken by a Hitachi S-3200N Variable Pressure SEM (Hitachi High-Technologies Corp., Tokyo, Japan). The applied accelerating voltage was 15 kV. For size distribution measurements, the diameter of at least 500 particles was measured and analyzed with ImageJ software (see, e.g., C. A. Schneider, W. S. Rasband, K. W. Eliceiri, NIH Image to ImageJ: 25 years of image analysis, Nature Methods. 9 (2012) 671-675). For cross-sectional images, the microspheres were cut using a razor-blade on a glass slide prior to coating with gold for the SEM analysis.

Turning to `CC(=O)N[C@@H](C(=O)O)C(C)(C)SN=O` [SNAP, S-nitroso-N-acetyl-D-penicillamine], the “particle dimensions after micronization” value was < 25 μm.
